Consider twelve molecules from US5919940A, “Metalloproteinase inhibitors” (British Biotech Pharmaceuticals Limited, priority 1998, dated 1999).

Where two headings read alike, the source gives them in different places.

For one test, the target named is Collagenase. Put plainly: Inhibition of collagenase (acetylated 14C collagen hydrolysis; Cawston and Barrett). It counts as biochemical. To be noted: 37°, 16 hours, pH 7.5, read-out: In vitro inhibitory activity IC50, Collagenase.
The target in test [1] is T1, stromelysin (Homo sapiens, UniProt P08254). Put plainly: biochemical.
T1 sequence (P08254 100-477): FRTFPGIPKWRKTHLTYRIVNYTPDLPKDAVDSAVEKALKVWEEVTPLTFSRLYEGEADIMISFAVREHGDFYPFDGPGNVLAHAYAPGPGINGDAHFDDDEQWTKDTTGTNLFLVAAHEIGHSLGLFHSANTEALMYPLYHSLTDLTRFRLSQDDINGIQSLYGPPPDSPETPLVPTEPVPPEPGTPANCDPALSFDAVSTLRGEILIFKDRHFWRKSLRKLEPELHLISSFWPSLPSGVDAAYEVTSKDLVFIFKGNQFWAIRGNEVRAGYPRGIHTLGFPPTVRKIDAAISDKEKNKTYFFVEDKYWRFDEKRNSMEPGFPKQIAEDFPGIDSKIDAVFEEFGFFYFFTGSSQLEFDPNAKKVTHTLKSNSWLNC
Description: (§1) The casein was acetylated ^14 C casein prepared by the method of Cawston et al (ibid).
A further test concerns the target T2, 72 kDa Gelatinase (Homo sapiens, UniProt P08253).
T2 construct: endogenous in cells; host or cells: RPMI-7951 cells
T2 sequence (P08253 110-660): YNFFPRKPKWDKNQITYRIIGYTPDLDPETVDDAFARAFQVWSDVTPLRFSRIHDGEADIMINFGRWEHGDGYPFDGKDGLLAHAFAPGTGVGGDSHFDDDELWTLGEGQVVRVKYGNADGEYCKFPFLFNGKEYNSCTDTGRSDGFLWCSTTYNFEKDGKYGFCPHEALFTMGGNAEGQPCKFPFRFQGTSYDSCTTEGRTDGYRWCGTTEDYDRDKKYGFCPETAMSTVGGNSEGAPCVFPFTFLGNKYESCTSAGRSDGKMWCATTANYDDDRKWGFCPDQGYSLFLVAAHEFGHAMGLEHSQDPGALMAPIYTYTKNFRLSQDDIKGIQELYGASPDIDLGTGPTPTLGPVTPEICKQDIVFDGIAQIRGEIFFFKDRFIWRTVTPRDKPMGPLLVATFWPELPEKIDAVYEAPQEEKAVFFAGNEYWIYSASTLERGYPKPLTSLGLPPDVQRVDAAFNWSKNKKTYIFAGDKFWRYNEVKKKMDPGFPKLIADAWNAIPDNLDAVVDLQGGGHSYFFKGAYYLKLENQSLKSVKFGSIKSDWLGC
As to the kind of experiment: Inhibition of 72 kDa gelatinase (14C-radiolabelled gelatin; Sellers et al). It is filed as biochemical.

Test [2] concerns the target T1, stromelysin. Conditions: read-out: In vitro inhibitory activity IC50, Stromelsin; 14C acetylated casein, 37°, 16 hours, pH 7.5.
Description: as §1
[3] abbreviates: enzyme from RPMI-7951 cells, 14C gelatin, 37° C., 16 hours, read-out: In vitro inhibitory activity IC50, 72 kDa Gelatinase.

By IC50 is commonly meant the concentration at which inhibition is half-maximal.

Description for Collagenase: The samples were centrifuged to sediment undigested collagen, and an aliquot of the radioactive supernatant removed for assay on a scintillation counter as a measure of hydrolysis.

Consider `CNC(=O)[C@H](CC(C)C)NC(=O)[C@H](CC(C)C)[C@H](O)C(=O)NO` [Comparator 5, 2S-Hydroxy-3R-(1S-methylcarbamoyl-3-methyl-butylcarbamoyl)-5methylhexanohydroxamic acid, reference compound], for which the IC50 at Collagenase was determined as 8 nM; against stromelysin [1], 90 nM.

With `CC(C)C[C@H](CC(=O)NO)C(=O)N[C@@H](Cc1ccccc1)C(=O)Nc1ccccc1` [Example 1, 5-Methyl-3R-(2-phenyl-1S-phenylcarbamoylethylcarbamoyl)-hexanohydroxamic acid], the values for the IC50 on Collagenase, on 72 kDa Gelatinase (setting [3]) and at stromelysin [2] were 20 nM, 60 nM and 10 nM, respectively.

For the molecule `COc1ccc(NC(=O)[C@H](Cc2ccccc2)NC(=O)[C@H](CC(C)C)[C@H](O)C(=O)NO)cc1` [Example 6], the IC50 on Collagenase stood at 30 nM; on 72 kDa Gelatinase (setting [3]), 8 nM; on stromelysin [1] it was 3 nM.

Regarding `CNC(=O)[C@H](Cc1ccccc1)NC(=O)[C@H](CC(C)C)[C@H](O)C(=O)NO` [Comparator 4, 2S-Hydroxy-3R-(1S-methylcarbamoyl-2-phenylethylcarbamoyl)-5-methylhexanohydroxamic acid, reference compound], the figures for the IC50 at Collagenase, on 72 kDa Gelatinase (setting [3]) and at stromelysin [1] were 15 nM, 3 nM and 200 nM, respectively.

Turning to `CC(C)C[C@@H](C(=O)N[C@H](C(=O)Nc1ccccc1)C(C)(C)C)[C@H](O)C(=O)NO` [Example 4, 3R-(2,2-Dimethyl-1S-phenylcarbamoyl-propylcarbamoyl)-2S-hydroxy-5-methylhexanohydroxamic acid], the figures for the 50% inhibitory concentration (IC50) at Collagenase, at 72 kDa Gelatinase (setting [3]) and at stromelysin [1] were 2 nM, 5 nM and 9 nM, respectively.

In the case of `CNC(=O)[C@@H](NC(=O)[C@@H](CC(=O)NO)CC(C)C)C(C)(C)C` [Comparator 3, 3R-(2,2-Dimethyl-1S-methylcarbamoyl-propylcarbamoyl)-5-methylhexanohydroxamic acid, reference compound], the half-inhibitory concentration (IC50) at Collagenase was 10 nM; on 72 kDa Gelatinase, 8 nM; at stromelysin [1], 700 nM.

Turning to `CC(C)C[C@H](CC(=O)NO)C(=O)N[C@H](C(=O)Nc1ccccc1)C(C)(C)C` [Example 2, 3R-(2,2-Dimethyl-1S-phenylcarbamoyl-propylcarbamoyl)-5-methyl-hexanohydroxamic acid], the concentration for half-maximal inhibition (IC50) at Collagenase was 30 nM; on 72 kDa Gelatinase (setting [3]), 30 nM; on stromelysin [1], 15 nM.

Turning to `CC(C)C[C@@H](C(=O)N[C@H](C(=O)Nc1ccccn1)C(C)(C)C)[C@H](O)C(=O)NO` [Example 8, 3R-(2,2-Dimethyl-1S-pyridin-2-ylcarbamoyl-propylcarbamoyl)-2S-hydroxy-5-methylhexanohydroxamic acid], the IC50 on Collagenase amounted to 6 nM; on 72 kDa Gelatinase (setting [3]), 15 nM; on stromelysin [1], 30 nM.

As to `Cc1nc(NC(=O)[C@@H](NC(=O)[C@H](CC(C)C)[C@H](O)C(=O)NO)C(C)(C)C)sc1C` [Example 17, 3R-(2,2-Dimethyl-1S-(4,5-dimethylthiazol-2-ylcarbamoyl)-propylcarbamoyl)-2S-hydroxy-5-methylhexanohydroxamic acid], the IC50 on Collagenase is 2 nM; on 72 kDa Gelatinase (setting [3]), 30 nM; on stromelysin [1], 20 nM.

Turning to `CC(C)C[C@H](NC(=O)[C@H](CC(C)C)[C@H](O)C(=O)NO)C(=O)Nc1ccc2ccccc2c1` [Example 5, 2S-Hydroxy-3R-(3-methyl-1S-napth-2-ylcarbamoyl-butylcarbamoyl)-5-methylhexanohydroxamic acid], the IC50 stood at 30 nM at Collagenase, 6 nM on 72 kDa Gelatinase (setting [3]) and 5 nM on stromelysin [1].

For `CC(C)C[C@H](CC(=O)NO)C(=O)N[C@H](C(=O)Nc1ccccn1)C(C)(C)C` [Example 3, 3R-(2,2-Dimethyl-1S-pyridin-2-ylcarbamoyl-propylcarbamoyl)-5-methyl-hexanohydroxamic acid], the values for the IC50 at Collagenase, on 72 kDa Gelatinase (setting [3]) and on stromelysin [1] were 40 nM, 30 nM and 150 nM, respectively.

Turning to `CNC(=O)[C@H](Cc1ccccc1)NC(=O)[C@@H](CC(=O)NO)CC(C)C` [Comparator 1, 5-Methyl-3R-(1S-methylcarbamoyl-2-phenylethylcarbamoyl)hexanohydroxamic acid, reference compound], the 50% inhibitory concentration (IC50) on Collagenase was found to be 15 nM.
